For 32 molecules, IC50 results are on record in patent US11998539B2, “Substituted aminoquinolones as DGKalpha inhibitors for immune activation” (Bayer Aktiengesellschaft, priority 2019, dated 2024).

pIC50: −log10 of the molar value.

For this assay, the target named is DGKα (Homo sapiens (Human), UniProt P23743). Nature of the assay: Human DGKα kinase activity inhibition assay (ADP-Glo). Format: biochemical. As to conditions: recombinant full-length human DGKα, 55 μM ATP, 7 μM 1,2-dioleoyl-sn-glycerol, read-out: IC50 values of examples in in vitro human DGKa kinase activity inhibition assays. In outline: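 Recombinant full-length human DGKα (C-terminal FLAG, from insect cells) phosphorylated 1,2-dioleoyl-sn-glycerol presented in octyl-glucopyranoside micelles. ADP formed was quantified by ADP-Glo luminescence. Compounds were added from 100-fold DMSO stocks.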
DGKα, sequence (P23743 other isoform, or with tags, fused parts or gaps): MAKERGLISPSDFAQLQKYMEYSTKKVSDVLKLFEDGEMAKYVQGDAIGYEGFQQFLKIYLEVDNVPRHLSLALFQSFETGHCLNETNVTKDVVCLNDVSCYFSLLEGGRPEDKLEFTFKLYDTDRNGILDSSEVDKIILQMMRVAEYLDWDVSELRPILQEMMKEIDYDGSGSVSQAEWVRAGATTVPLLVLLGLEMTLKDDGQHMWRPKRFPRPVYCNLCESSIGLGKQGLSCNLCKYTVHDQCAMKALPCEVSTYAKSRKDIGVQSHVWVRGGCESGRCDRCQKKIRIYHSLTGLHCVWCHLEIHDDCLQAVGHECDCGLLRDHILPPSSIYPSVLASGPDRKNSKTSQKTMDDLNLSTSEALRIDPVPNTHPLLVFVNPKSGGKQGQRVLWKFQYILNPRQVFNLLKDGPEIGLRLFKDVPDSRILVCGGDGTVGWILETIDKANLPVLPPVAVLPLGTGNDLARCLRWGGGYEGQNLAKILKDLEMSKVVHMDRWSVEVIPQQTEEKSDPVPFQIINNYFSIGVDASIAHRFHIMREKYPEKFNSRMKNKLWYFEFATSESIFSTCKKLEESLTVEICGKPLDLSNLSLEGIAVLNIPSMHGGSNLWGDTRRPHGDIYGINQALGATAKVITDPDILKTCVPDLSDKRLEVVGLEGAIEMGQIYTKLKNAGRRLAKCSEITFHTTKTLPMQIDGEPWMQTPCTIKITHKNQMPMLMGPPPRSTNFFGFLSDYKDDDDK
Take `CC(=O)c1ccc(C2(C)CCN(c3c(C#N)c(=O)n(C)c4ccccc34)CC2)cc1` [Example 335, 4-[4-(4-acetylphenyl)-4-methylpiperidin-1-yl]-1-methyl-2-oxo-1,2-dihydroquinoline-3-carbonitrile]: the negative-log IC50 (pIC50) is 8.64. In the case of `Cc1ccc2oc(C3CCN(c4c(C#N)c(=O)n(C)c5ccc(S(C)(=O)=O)cc45)CC3)nc2c1` [Example 339, 6-(methanesulfonyl)-1-methyl-4-[4-(5-methyl-1,3-benzoxazol-2-yl)piperidin-1-yl]-2-oxo-1,2-dihydroquinoline-3-carbonitrile] it was 7.17; in that of `COc1ccc(C2CCN(c3c(C#N)c(=O)n(C)c4ccc(Br)cc34)CC2)cc1` [Example 167, 6-bromo-4-[4-(4-methoxyphenyl)piperidin-1-yl]-1-methyl-2-oxo-1,2-dihydroquinoline-3-carbonitrile], 8.49; in that of `Cc1ccc2oc(C3(C)CCN(c4c(C#N)c(=O)n(C)c5ccc(OC6CC6)cc45)CC3)nc2c1` [Example 274, 6-(cyclopropyloxy)-1-methyl-4-[4-methyl-4-(5-methyl-1,3-benzoxazol-2-yl)piperidin-1-yl]-2-oxo-1,2-dihydroquinoline-3-carbonitrile], 6.82.

Take `COc1ccc2c(c1)c(N1CCC(c3nc4ccc(C)cc4o3)CC1)c(C#N)c(=O)n2C` [Example 190, 6-methoxy-1-methyl-4-[4-(6-methyl-1,3-benzoxazol-2-yl)piperidin-1-yl]-2-oxo-1,2-dihydroquinoline-3-carbonitrile]: the pIC50 was 8.24. `Cc1ccc2nc(C3CCN(c4c(C#N)c(=O)n(C)c5ccccc45)CC3)oc2c1` [Example 7, 1-methyl-4-[4-(6-methyl-1,3-benzoxazol-2-yl)piperidin-1-yl]-2-oxo-1,2-dihydroquinoline-3-carbonitrile]: the negative logarithm of the IC50 (pIC50) was 8.49. As to `Cn1c(=O)c(C#N)c(N2CCC(c3nc4cc(F)c(F)cc4o3)CC2)c2cccc(Br)c21` [Example 160, 8-bromo-4-[4-(5,6-difluoro-1,3-benzoxazol-2-yl)piperidin-1-yl]-1-methyl-2-oxo-1,2-dihydroquinoline-3-carbonitrile], the negative-log IC50 (pIC50) is 6.26. In the case of `Cc1ccc2oc(C3CCN(c4c(C#N)c(=O)n(C)c5cc(O)c(C)cc45)CC3)nc2c1` [Example 428, 7-hydroxy-1,6-dimethyl-4-[4-(5-methyl-1,3-benzoxazol-2-yl)piperidin-1-yl]-2-oxo-1,2-dihydroquinoline-3-carbonitrile] it was 9.22; in that of `Cn1c(=O)c(C#N)c(N2CCC(c3cc[nH]n3)CC2)c2ccccc21` [Example 322, 1-methyl-2-oxo-4-[4-(1H-pyrazol-3-yl)piperidin-1-yl]-1,2-dihydroquinoline-3-carbonitrile], 6.62. In the case of `COc1ccc2c(N3CCC(C)(c4nc5cc(C)ccc5o4)CC3)c(C#N)c(=O)n(C)c2c1` [Example 248, 7-methoxy-1-methyl-4-[4-methyl-4-(5-methyl-1,3-benzoxazol-2-yl)piperidin-1-yl]-2-oxo-1,2-dihydroquinoline-3-carbonitrile], the negative-log IC50 (pIC50) was 8.16.

As for `COc1ccc2c(c1)c(N1CCC(c3nc(-c4ccccc4)no3)CC1)c(C(N)=O)c(=O)n2C` [Example 521, 6-methoxy-1-methyl-2-oxo-4-[4-(3-phenyl-1,2,4-oxadiazol-5-yl)piperidin-1-yl]-1,2-dihydroquinoline-3-carboxamide], the pIC50 is 7.37. On to `Cn1cc(C2CCN(c3c(C#N)c(=O)n(C)c4ccccc34)CC2)cn1` [Example 323, 1-methyl-4-[4-(1-methyl-1H-pyrazol-4-yl)piperidin-1-yl]-2-oxo-1,2-dihydroquinoline-3-carbonitrile], for which the negative-log IC50 (pIC50) was 6.49. Regarding `Cn1c(=O)c(C#N)c(N2CCC(C)(c3nc4ccccc4o3)CC2)c2cc(F)ccc21` [Example 216, 4-[4-(1,3-benzoxazol-2-yl)-4-methylpiperidin-1-yl]-6-fluoro-1-methyl-2-oxo-1,2-dihydroquinoline-3-carbonitrile], the pIC50 is 9.40. Regarding `Cc1ccc2oc(C3CCN(c4c(C(N)=O)c(=O)n(C)c5cc(N(C)C6COC6)ccc45)CC3)nc2c1` [Example 494, 1-methyl-4-[4-(5-methyl-1,3-benzoxazol-2-yl)piperidin-1-yl]-7-[methyl(oxetan-3-yl)amino]-2-oxo-1,2-dihydroquinoline-3-carboxamide], the negative logarithm of the IC50 (pIC50) is 8.21. Turning to `Cn1c(=O)c(C#N)c(N2CCC(c3cnccn3)CC2)c2ccccc21` [Example 150, 1-methyl-2-oxo-4-[4-(pyrazin-2-yl)piperidin-1-yl]-1,2-dihydroquinoline-3-carbonitrile], the negative logarithm of the IC50 (pIC50) was 5.82.

On to `Cc1ccc2oc(C3CCN(c4c(C#N)c(=O)n(C)c5cc(OC6COC6)ccc45)CC3)nc2c1` [Example 385, 1-methyl-4-[4-(5-methyl-1,3-benzoxazol-2-yl)piperidin-1-yl]-7-[(oxetan-3-yl)oxy]-2-oxo-1,2-dihydroquinoline-3-carbonitrile], for which the pIC50 is 9.05. On to `Cn1c(=O)c(C#N)c(N2CCC(O)(c3ccc(Cl)cc3)CC2)c2ccccc21` [Example 151, 4-[4-(4-chlorophenyl)-4-hydroxypiperidin-1-yl]-1-methyl-2-oxo-1,2-dihydroquinoline-3-carbonitrile], for which the pIC50 was 6.31.

Consider `Cn1c(=O)c(C(N)=O)c(N2CCC(c3nnc(-c4cccc(Cl)c4)o3)CC2)c2ccccc21` [Example 464, 4-{4-[5-(3-chlorophenyl)-1,3,4-oxadiazol-2-yl]piperidin-1-yl}-1-methyl-2-oxo-1,2-dihydroquinoline-3-carboxamide], for which the negative logarithm of the IC50 (pIC50) was 6.91. The result for `Cc1cccc(-c2noc(C3CCN(c4c(C(N)=O)c(=O)n(C)c5ccccc45)CC3)n2)c1` [Example 460, 1-methyl-4-{4-[3-(3-methylphenyl)-1,2,4-oxadiazol-5-yl]piperidin-1-yl}-2-oxo-1,2-dihydroquinoline-3-carboxamide] reads 8.46; that for `Cc1ccc2oc(C3CCN(c4c(C#N)c(=O)n(C)c5ccc(C6(C(F)(F)F)CC6)cc45)CC3)nc2c1` [Example 412, 1-methyl-4-[4-(5-methyl-1,3-benzoxazol-2-yl)piperidin-1-yl]-2-oxo-6-[1-(trifluoromethyl)cyclopropyl]-1,2-dihydroquinoline-3-carbonitrile], 7.68. In the case of `Cc1cccc(-c2nnc(C3CCN(c4c(C(N)=O)c(=O)n(C)c5ccc(Br)cc45)CC3)o2)c1` [Example 526, 6-bromo-1-methyl-4-{4-[5-(3-methylphenyl)-1,3,4-oxadiazol-2-yl]piperidin-1-yl}-2-oxo-1,2-dihydroquinoline-3-carboxamide], the negative logarithm of the IC50 (pIC50) was 7.57. As to `COc1ccc2oc(C3CCN(c4c(C(N)=O)c(=O)n(C)c5ccccc45)CC3)nc2c1` [Example 486, 4-[4-(5-methoxy-1,3-benzoxazol-2-yl)piperidin-1-yl]-1-methyl-2-oxo-1,2-dihydroquinoline-3-carboxamide], the negative-log IC50 (pIC50) is 8.25. The result for `Cc1ccc2oc(C3(C)CCN(c4c(C#N)c(=O)n(C)c5ccc(Br)cc45)CC3)nc2c1` [Example 171, 6-bromo-1-methyl-4-[4-methyl-4-(5-methyl-1,3-benzoxazol-2-yl)piperidin-1-yl]-2-oxo-1,2-dihydroquinoline-3-carbonitrile] reads 8.82; that for `COc1ccc2c(c1)c(N1CCC(c3nc(-c4cccc(C)c4)no3)CC1)c(C#N)c(=O)n2C` [Example 436, 6-methoxy-1-methyl-4-{4-[3-(3-methylphenyl)-1,2,4-oxadiazol-5-yl]piperidin-1-yl}-2-oxo-1,2-dihydroquinoline-3-carbonitrile], 7.49; that for `Cn1c(=O)c(C#N)c(N2CCC(c3cccc(C#N)c3)CC2)c2ccccc21` [Example 327, 4-[4-(3-cyanophenyl)piperidin-1-yl]-1-methyl-2-oxo-1,2-dihydroquinoline-3-carbonitrile], 7.07. Take `CC(C)c1ccc2oc(C3CCN(c4c(C#N)c(=O)n(C)c5ccccc45)CC3)nc2c1` [Example 8, 1-methyl-2-oxo-4-{4-[5-(propan-2-yl)-1,3-benzoxazol-2-yl]piperidin-1-yl}-1,2-dihydroquinoline-3-carbonitrile]: the pIC50 was 8.49.

Consider `Cc1ccc(-c2nnc(C3CCN(c4c(C#N)c(=O)n(C)c5ccccc45)CC3)o2)cc1` [Example 352, 1-methyl-4-{4-[5-(4-methylphenyl)-1,3,4-oxadiazol-2-yl]piperidin-1-yl}-2-oxo-1,2-dihydroquinoline-3-carbonitrile], for which the pIC50 was 6.95.

As for `Cn1c(=O)c(C#N)c(N2CCC(c3nc4ccc(Cl)cc4o3)CC2)c2cccc(Br)c21` [Example 157, 8-bromo-4-[4-(6-chloro-1,3-benzoxazol-2-yl)piperidin-1-yl]-1-methyl-2-oxo-1,2-dihydroquinoline-3-carbonitrile], the pIC50 is 6.60. Take `Cn1c(=O)c(C#N)c(N2CCC(c3nc4ccccc4s3)CC2)c2ccccc21` [Example 12, 4-[4-(1,3-benzothiazol-2-yl)piperidin-1-yl]-1-methyl-2-oxo-1,2-dihydroquinoline-3-carbonitrile]: the pIC50 is 8.46. On to `COc1ccc2cc(C3CCN(c4c(C(N)=O)c(=O)n(C)c5ccccc45)CC3)ccc2c1` [Example 457, 4-[4-(6-methoxynaphthalen-2-yl)piperidin-1-yl]-1-methyl-2-oxo-1,2-dihydroquinoline-3-carboxamide], for which the pIC50 was 8.17. With `Cc1ccc2oc(C3CCN(c4c(C(N)=O)c(=O)n(C)c5cc(F)c(C#N)cc45)CC3)nc2c1` [Example 564, 6-cyano-7-fluoro-1-methyl-4-[4-(5-methyl-1,3-benzoxazol-2-yl)piperidin-1-yl]-2-oxo-1,2-dihydroquinoline-3-carboxamide], the pIC50 was 8.48. Turning to `Cc1ccc2oc(C3(C)CCN(c4c(C#N)c(=O)n(C)c5c(C6CC6)cccc45)CC3)nc2c1` [Example 272, 8-cyclopropyl-1-methyl-4-[4-methyl-4-(5-methyl-1,3-benzoxazol-2-yl)piperidin-1-yl]-2-oxo-1,2-dihydroquinoline-3-carbonitrile], the negative logarithm of the IC50 (pIC50) is 6.95.
